This is an account of results in US9707202B2, “Certain chemical entities, compositions, and methods” (NEUPHARMA, INC., priority 2011, dated 2017).

Broadly, the solubility is how much of the substance goes into solution per volume. A low value points to little dissolved substance. By IC50 is commonly meant the concentration that inhibits the measured activity by half.

Data set [1] can be described thus: Equilibrium solubility in aqueous buffer. Format: physicochemical. To be noted: thermodynamic from solid, NaOAc/AcOH buffer (100 mM, pH 5.0), shaken at rt for 24 h, HPLC UV. Here is the method: The equilibrium solubility of compounds was measured in aqueous buffer. Excess amount of solid compound was added into buffer solution and the sample was briefly sonicated and then shaken at rt for 24 h. The sample was filtered and the concentration was analyzed by HPLC UV. A standard solution at 0.2 mg/mL was prepared in methanol or acetonitrile for each compound and used as an external standard for quantification.

In data set [2] the test system is A549 cells. Nature of the data set: Inhibition of cell growth in tumor cells (MTT assay). It counts as cell-based. As to conditions: Homo sapiens, 72 h compound exposure. The procedure: Inhibition of cell growth by compounds was measured using MTT assay (Mosmann, T., Journal of Immunological Methods, 1983, 65, 55-63). Tumor cell lines were purchased from ATCC (American Type Culture Collection, Manassas, Va.). All cell lines were maintained in RPMI 1640 (Hyclone) supplemented with 10% fetal bovine serum (FBS, Hyclone), glutamine (2 mM, Hyclone), and antibiotics (penicillin 100 U/mL and streptomycin 50 µg/mL) at 37° C. in a humidified atmosphere of 5% CO2 in air. Taxol (positive control, Sigma) and compounds were dissolved in DMSO (Sigma), and the final concentration of DMSO in the medium was 1%. Tumor cells were plated in 96-well plates at densities from 4000 cells/well of a 96-well plate and allowed to adhere/grow for 24 h. They were then treated with various concentrations of drug for 72 h. 3-(4,5-Dimethylthiazol-2-yl)-2,5-diphenyltetrazolium bromide (MTT, Sigma) was used to determine the number of viable cells at the time of compound addition and the number of cells remaining after 72 h compound exposure. The number of cells remaining after 72 h was compared to the number of viable cells at the time of compound addition by measuring the absorbance at 570 nm, allowing for the calculation of growth inhibition.
All concentrations of compounds were tested in triplicate and controls were averaged over 4 wells. IC50 was calculated by plotting the concentration of compound vs the percentage of inhibition in treated wells using GraphPad Prism 5.
(Tetrazolium dyes change colour on reduction, which living cells bring about.)

In brackets after ≈: the same amount, converted by molar mass.

In the case of `COc1cc(/C=C/C(=O)CC(=O)/C=C/c2ccc(O)c(OC)c2)ccc1O` [Curcumin, reference compound], the solubility at 24 h in data set [1] (aqueous buffer (NaOAc/AcOH)) is under 1 µg/mL. Moreover, the IC50 in data set [2] was over 30 µM.
Take `COc1cc(/C=C/C(=O)CC(=O)/C=C/c2ccc(OC(=O)N(C)C)c(OC)c2)ccc1OCCO` [4-((1E,6E)-7-(4-(2-hydroxyethoxy)-3-methoxyphenyl)-3,5-dioxohepta-1,6-dien-1-yl)-2-methoxyphenyl dimethylcarbamate]: in data set [2], the midpoint of inhibition, the IC50, lay at 9.1 µM.
Same read-out and setting: then `COc1cc(/C=C/C(=O)CC(=O)/C=C/c2ccc(OC(=O)N3CCCCC3)c(OC)c2)ccc1OCCO` [4-((1E,6E)-7-(4-(2-hydroxyethoxy)-3-methoxyphenyl)-3,5-dioxohepta-1,6-dien-1-yl)-2-methoxyphenyl piperidine-1-carboxylate], with 10.9 µM.
Same read-out and setting: then `COc1cc(/C=C/C(=O)CC(=O)/C=C/c2ccc(OC(=O)N3CCCCC3)c(OC)c2)ccc1O` [4-((1E,6E)-7-(4-hydroxy-3-methoxyphenyl)-3,5-dioxohepta-1,6-dien-1-yl)-2-methoxyphenyl piperidine-1-carboxylate], with 8 µM.
On the same count and under the same terms, the same measure for `COc1cc(/C=C/C(=O)CC(=O)/C=C/c2ccc(OC(=O)N3CCOCC3)c(OC)c2)ccc1O` [4-((1E,6E)-7-(4-hydroxy-3-methoxyphenyl)-3,5-dioxohepta-1,6-dien-1-yl)-2-methoxyphenyl morpholine-4-carboxylate]: 7.2 µM; for `COc1ccc(/C=C/C(=O)CC(=O)/C=C/c2ccc(OC(=O)N(C)C)c(OC)c2)cc1OC` [4-((1E,6E)-7-(3,4-dimethoxyphenyl)-3,5-dioxohepta-1,6-dien-1-yl)-2-methoxyphenyl dimethylcarbamate]: 10.6 µM; for `COc1cc(/C=C/C(=O)CC(=O)/C=C/c2ccc(OC(=O)N(C)C)c(OC)c2)ccc1O` [4-((1E,6E)-7-(4-hydroxy-3-methoxyphenyl)-3,5-dioxohepta-1,6-dien-1-yl)-2-methoxyphenyl dimethylcarbamate]: 2.3 µM.
In the case of `COc1cc(/C=C/C(=O)CC(=O)/C=C/c2ccc(OC(=O)N3CCN(C)CC3)c(OC)c2)ccc1O` [4-((1E,6E)-7-(4-hydroxy-3-methoxyphenyl)-3,5-dioxohepta-1,6-dien-1-yl)-2-methoxyphenyl 4-methylpiperazine-1-carboxylate], in data set [1], the solubility at 24 h is 18 µg/mL (≈ 36.4 µM). In data set [2], this molecule displayed an IC50 of 3.8 µM.
On the same counts, the results for `COc1cc(/C=C/C(=O)CC(=O)/C=C/c2ccc(OC(=O)N3CCNCC3)c(OC)c2)ccc1O` [4-((1E,6E)-7-(4-hydroxy-3-methoxyphenyl)-3,5-dioxohepta-1,6-dien-1-yl)-2-methoxyphenyl piperazine-1-carboxylate] are 1390 µg/mL (≈ 2890 µM) and 9.2 µM.
On to `COc1ccc(/C=C/C(=O)CC(=O)/C=C/c2ccc(OC(=O)N3CCOCC3)c(OC)c2)cc1OC` [4-((1E,6E)-7-(3,4-dimethoxyphenyl)-3,5-dioxohepta-1,6-dien-1-yl)-2-methoxyphenyl morpholine-4-carboxylate], for which the IC50 in data set [2] was 4.6 µM.
With `COc1ccc(/C=C/C(=O)CC(=O)/C=C/c2ccc(OC(=O)N3CCN(C)CC3)c(OC)c2)cc1OC` [4-((1E,6E)-7-(3,4-dimethoxyphenyl)-3,5-dioxohepta-1,6-dien-1-yl)-2-methoxyphenyl 4-methylpiperazine-1-carboxylate], the concentration in solution in data set [1] (solubility at 24 h) came to 320 µg/mL (≈ 629 µM). The molecule further yielded a 50% inhibitory concentration (IC50) in data set [2] of 4.3 µM.
